Values of other authors, collected in patent publication US20170210704A1, “DEUTERO-PHENFORMIN DERIVATIVES” (Enlibrium Inc, priority 2016, published 2017).

What was measured:
[1] = patients treated for type 2 diabetes
cytochrome P450 2D6 = conditions: 2D6 polymorphisms in humans; essentially no metabolism in poor metabolizers

Row | SMILES | risk of lactic acidosis [1] | metabolism in ultrarapid metabolizers relative to poor metabolizers (cytochrome P450 2D6) [fold]
1 | CN(C)C(=N)N=C(N)N [metformin, Metformin] | 0.1 events per 1,000 patient years | –
2 | [H]/N=C(/N)N/C(=N/[H])NCCc1ccccc1 [phenformin, Phenformin] | 0.6 events per 1,000 patient years | 200
